In PubChem BioAssay (NCI) one finds TGI and GI50 data, which are given here for twelve molecules.

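Exposure lasted 48 hours, with cells grown in 96-well plates and compounds tested at five concentrations. The concentration for 50% growth inhibition is given as GI50. TGI: total growth inhibition.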 Bounds are passed on as bounds.

Some test systems named below: SK-MEL-5 melanoma; NCI-H226 lung; OVCAR-3 ovarian; SNB-75 CNS; HCT-15 colon; ACHN renal; SR leukemia; UACC-257 melanoma; A498 renal; RPMI-8226 leukemia.
What all share (test): NCI tumour cell line growth inhibition, 48 h

On to `COC(=O)Cc1nn2c(nc1=O)sc1ccc3ccccc3c12`, for which the TGI was greater than 100 µM in the assay with SK-MEL-5 melanoma; greater than 100 µM in the assay on NCI-H226 lung; greater than 100 µM with OVCAR-3 ovarian; 76.3 µM with SNB-75 CNS; greater than 100 µM with HCT-15 colon; greater than 100 µM in the assay with ACHN renal. The TGI in the assay on SR leukemia, in the assay on UACC-257 melanoma and in the assay with A498 renal was greater than 100 µM throughout.

On to `COc1cc(CC(=O)c2cc3c(cc2-c2ccccc2)OCO3)cc(OC)c1OC`, for which the TGI in the assay on SK-MEL-5 melanoma is 27.1 µM; with NCI-H226 lung, 79.3 µM; with OVCAR-3 ovarian, greater than 100 µM; with SNB-75 CNS, 35.8 µM; with HCT-15 colon it was greater than 100 µM; with ACHN renal, greater than 100 µM. In addition, the TGI in the assay with SR leukemia was 72.3 µM; with UACC-257 melanoma, greater than 100 µM; in the assay on A498 renal it was greater than 100 µM.

As for `NNc1ncnc2cccc(Cl)c12`, the TGI with SK-MEL-5 melanoma, in the assay with NCI-H226 lung, with OVCAR-3 ovarian, in the assay on SNB-75 CNS, with HCT-15 colon and in the assay with ACHN renal was greater than 100 µM each time. The TGI with SR leukemia, in the assay on UACC-257 melanoma and with A498 renal was greater than 100 µM in each case.

Consider `CC/C(=C(/CC)c1ccc(O)cc1)c1ccc(O)cc1`, for which the GI50 in the assay with SK-MEL-5 melanoma was 3.02 µM; in the assay on NCI-H226 lung, 14.6 µM; with OVCAR-3 ovarian it was 2.72 µM; with SNB-75 CNS, 2.2 µM; in the assay on HCT-15 colon it was 4.79 µM; in the assay with ACHN renal it was 6.07 µM. Besides, the GI50 is 3.98 µM in the assay with SR leukemia, 7.04 µM in the assay on UACC-257 melanoma and 12.4 µM with A498 renal. Moreover, the TGI is 12.9 µM in the assay with SK-MEL-5 melanoma; 36 µM with NCI-H226 lung; 7 µM with OVCAR-3 ovarian; 6.48 µM in the assay on SNB-75 CNS; 20 µM with HCT-15 colon; 18.3 µM in the assay with ACHN renal. Besides, the TGI worked out at 29.6 µM with SR leukemia, 22.7 µM in the assay with UACC-257 melanoma and 25.2 µM with A498 renal.

Regarding `ClCc1ccc(-c2ccc(Cn3cnc4c(Cl)ncnc43)cc2)cc1`, the GI50 is 2.49 µM in the assay with SK-MEL-5 melanoma; 1.81 µM with NCI-H226 lung; 1.83 µM with OVCAR-3 ovarian; 1.9 µM in the assay on HCT-15 colon; 1.5 µM in the assay on ACHN renal; 2.51 µM in the assay on SR leukemia. Further, the results for the GI50 in the assay with UACC-257 melanoma, in the assay on RPMI-8226 leukemia and in the assay on A498 renal were 3.76 µM, 2.05 µM and 20.5 µM, respectively. Also, the TGI is 7.17 µM in the assay with SK-MEL-5 melanoma; 3.89 µM in the assay on NCI-H226 lung; 3.8 µM in the assay on OVCAR-3 ovarian; 4.47 µM in the assay with HCT-15 colon; 2.89 µM with ACHN renal; greater than 100 µM in the assay on SR leukemia. Moreover, the results for the TGI in the assay with UACC-257 melanoma, with RPMI-8226 leukemia and with A498 renal were 24.7 µM, 4.87 µM and 37 µM, respectively.

Turning to `CSc1nc(SC)c2c(C)cn(C3OC(C)C(O)C(O)C3O)c2n1` (centres undefined), the TGI in the assay on SK-MEL-5 melanoma, in the assay with NCI-H226 lung, with OVCAR-3 ovarian, in the assay with SNB-75 CNS, in the assay on HCT-15 colon and in the assay with ACHN renal was greater than 100 µM each time. In addition, the TGI was greater than 100 µM with SR leukemia, greater than 100 µM in the assay on RPMI-8226 leukemia and 74.4 µM with A498 renal.

Consider `c1ccc(N2N=NC3C4CC(C5c6ccccc6C45)C32)cc1` (centres undefined), for which the TGI with SK-MEL-5 melanoma was 38.3 µM; in the assay on NCI-H226 lung, 96.3 µM; with OVCAR-3 ovarian, greater than 100 µM; with SNB-75 CNS, greater than 100 µM; in the assay on HCT-15 colon it was greater than 100 µM; in the assay with SR leukemia it was greater than 100 µM. Besides, the TGI in the assay with UACC-257 melanoma is 76.4 µM; in the assay on RPMI-8226 leukemia, greater than 100 µM; in the assay on A498 renal, greater than 100 µM.

Consider `O=Cc1cn(S(=O)(=O)c2ccccc2)c2ccccc12`, for which the TGI in the assay on NCI-H226 lung is greater than 100 µM; with OVCAR-3 ovarian it was greater than 100 µM; in the assay on SNB-75 CNS, greater than 100 µM; in the assay with HCT-15 colon, greater than 100 µM; in the assay on ACHN renal, greater than 100 µM; with SR leukemia, 67.1 µM. Moreover, the TGI in the assay with UACC-257 melanoma is greater than 100 µM; in the assay with RPMI-8226 leukemia it was 59.3 µM; in the assay on A498 renal, greater than 100 µM.

In the case of `COC(=O)C1=Cc2cn(S(=O)(=O)c3ccc(C)cc3)c3cccc(c23)C(C=C(C)C)N1C(C)=O` (centres undefined), the TGI in the assay with SK-MEL-5 melanoma, in the assay with NCI-H226 lung, with OVCAR-3 ovarian, in the assay on SNB-75 CNS, with ACHN renal and with SR leukemia was greater than 100 µM throughout. The TGI in the assay with UACC-257 melanoma and with A498 renal was greater than 100 µM in each case.

As for `NCCCCCCCCCn1c2c(c3ccccc3c1=O)C(=O)c1ccccc1-2`, the GI50 is 8.4 µM in the assay on SK-MEL-5 melanoma; 9.46 µM in the assay with OVCAR-3 ovarian; 10.7 µM in the assay with SNB-75 CNS; 6.03 µM with HCT-15 colon; 8.2 µM in the assay on ACHN renal; 1.55 µM in the assay on SR leukemia. For the same molecule, the GI50 in the assay with UACC-257 melanoma is 10.1 µM; in the assay on RPMI-8226 leukemia it was 10.4 µM; in the assay on A498 renal, 7.74 µM. Further, the TGI in the assay with SK-MEL-5 melanoma is 17.7 µM; in the assay with OVCAR-3 ovarian it was 18.8 µM; in the assay with SNB-75 CNS, 21.7 µM; in the assay with HCT-15 colon, 16.2 µM; in the assay on ACHN renal, 17 µM; with SR leukemia it was greater than 50 µM. Moreover, the TGI in the assay with UACC-257 melanoma turned out to be 22.7 µM; in the assay with RPMI-8226 leukemia it was 30.8 µM; in the assay with A498 renal it was 16.4 µM.

With `O=C(O)C1C2CCC(O2)C1C(=O)NCc1cccnc1` (centres undefined), the TGI in the assay with SK-MEL-5 melanoma, in the assay with OVCAR-3 ovarian, with SNB-75 CNS, in the assay on HCT-15 colon, with ACHN renal and in the assay on SR leukemia was greater than 100 µM throughout. Besides, the TGI in the assay on UACC-257 melanoma, with RPMI-8226 leukemia and with A498 renal was greater than 100 µM each time.

As to `C1C[S][Ge]2([S]CCS1)[S]CCSCC[S]2`, the GI50 in the assay on NCI-H226 lung is greater than 100 µM; with SNB-75 CNS, 18.9 µM; with HCT-15 colon it was greater than 100 µM; in the assay with ACHN renal, greater than 100 µM; in the assay with SR leukemia, greater than 100 µM; in the assay on RPMI-8226 leukemia it was greater than 100 µM. Moreover, in the assay with A498 renal, the GI50 is greater than 100 µM. For the same molecule, the TGI with NCI-H226 lung was greater than 100 µM; in the assay with SNB-75 CNS it was 95 µM; with HCT-15 colon, greater than 100 µM; in the assay with ACHN renal, greater than 100 µM; in the assay with SR leukemia, greater than 100 µM; with RPMI-8226 leukemia, greater than 100 µM. The molecule also showed a TGI with A498 renal greater than 100 µM.
